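Step 1: Grow cells in 96-well plates. Step 2: Expose to compound for 48 hours at 5 concentrations. Step 3: Interpolate endpoints linearly; if unreached, use highest concentration. The concentration for 50% growth inhibition is given as GI50.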 Active and inactive are the calls of the source. No stated cut-off is given here; in the data, active = GI50 up to about 1.1 µM and inactive = higher.
Legend:
Experiment in all cases: NCI anticancer screen, dose series, 48 h
SNB-19 = tested on: SNB-19
HCT-116 = tested on: HCT-116
SF-295 = tested on: SF-295
OVCAR-3 = tested on: OVCAR-3
MOLT-4 = tested on: MOLT-4
NCI-H226 = tested on: NCI-H226
786-0 = tested on: 786-0
OVCAR-8 = tested on: OVCAR-8
SK-MEL-5 = tested on: SK-MEL-5
HCC 2998 = tested on: HCC 2998
A498 = tested on: A498
SK-MEL-2 = tested on: SK-MEL-2
HCT-15 = tested on: HCT-15
RPMI-8226 = tested on: RPMI-8226
CCRF-CEM = tested on: CCRF-CEM

Compound	GI50 (SNB-19)	GI50 (HCT-116)	GI50 (SF-295)	GI50 (OVCAR-3)	GI50 (MOLT-4)	GI50 (NCI-H226)	GI50 (786-0)	GI50 (OVCAR-8)	GI50 (SK-MEL-5)	GI50 (HCC 2998)	GI50 (A498)	GI50 (SK-MEL-2)	GI50 (HCT-15)	GI50 (RPMI-8226)	GI50 (CCRF-CEM)
CNc1ccc(/C=C2\C=Cc3ccccc32)cc1	61.4 µM (inactive)	33.1 µM (inactive)	31.3 µM (inactive)	21.2 µM (inactive)	41.9 µM (inactive)	25.1 µM (inactive)	31.5 µM (inactive)	64.3 µM (inactive)	26.5 µM (inactive)	16.6 µM (inactive)	28.1 µM (inactive)	18.8 µM (inactive)	20.9 µM	54.3 µM (inactive)	43.4 µM (inactive)
NNC(=S)N/N=C(\c1nc2ccc(Cl)cc2nc1O)C(O)c1cccc([N+](=O)[O-])c1 (stereo not given)	> 100 µM (inactive)	> 31.6 µM (inactive)	> 63.7 µM (inactive)	> 100 µM (inactive)	> 100 µM (inactive)	> 100 µM (inactive)	> 43 µM (inactive)	> 100 µM (inactive)	> 100 µM (inactive)	> 100 µM (inactive)	> 100 µM (inactive)	> 100 µM (inactive)	> 42.1 µM	> 43.3 µM (inactive)	> 52.5 µM (inactive)
CN(C)C(=S)/N=c1\ss/c(=N\C(=S)N(C)C)n1-c1ccc(Cl)cc1	> 100 µM (inactive)	> 100 µM (inactive)	> 100 µM (inactive)	> 100 µM (inactive)	> 100 µM (inactive)	> 100 µM (inactive)	> 100 µM (inactive)	> 100 µM (inactive)	–	–	> 100 µM (inactive)	> 100 µM (inactive)	> 100 µM	> 100 µM (inactive)	> 100 µM (inactive)
N#CCC(=O)N/N=C(\C(=O)Nc1ccc(Cl)c(Cl)c1)C1CN(c2ccccc2)N=C1N (stereo not given)	–	> 100 µM (inactive)	> 100 µM (inactive)	> 100 µM (inactive)	49.8 µM (inactive)	> 100 µM (inactive)	> 100 µM (inactive)	> 100 µM (inactive)	> 100 µM (inactive)	> 100 µM (inactive)	> 100 µM (inactive)	> 100 µM (inactive)	> 100 µM	> 100 µM (inactive)	54 µM (inactive)
Cc1cc(=O)oc2c(C)c(OCCCOc3ccc4c(C)cc(=O)oc4c3C)ccc12	> 100 µM (inactive)	> 100 µM (inactive)	> 100 µM (inactive)	> 100 µM (inactive)	> 100 µM (inactive)	–	> 100 µM (inactive)	> 100 µM (inactive)	> 100 µM (inactive)	–	> 100 µM (inactive)	> 100 µM (inactive)	> 100 µM	> 100 µM (inactive)	> 100 µM (inactive)
Cc1ccccc1NC(=O)C(=O)C(C#N)c1ccccc1C (stereo not given)	> 100 µM (inactive)	> 100 µM (inactive)	> 100 µM (inactive)	> 100 µM (inactive)	> 100 µM (inactive)	> 100 µM (inactive)	> 100 µM (inactive)	> 100 µM (inactive)	> 100 µM (inactive)	> 100 µM (inactive)	> 100 µM (inactive)	> 100 µM (inactive)	> 100 µM	> 100 µM (inactive)	30.4 µM (inactive)
COC(=O)N/N=C(\c1nc2ccc(Cl)cc2nc1O)C(O)c1ccc([N+](=O)[O-])cc1 (stereo not given)	> 100 µM (inactive)	> 100 µM (inactive)	> 100 µM (inactive)	> 100 µM (inactive)	98.4 µM (inactive)	> 100 µM (inactive)	> 100 µM (inactive)	> 100 µM (inactive)	> 100 µM (inactive)	> 100 µM (inactive)	–	–	> 100 µM	> 100 µM (inactive)	89.7 µM (inactive)
Cc1c2c(cc3c(=O)ccn(CCN(C)C)c13)c(=O)ccn2CCN(C)C	8.34 µM (inactive)	6.35 µM (inactive)	7.31 µM (inactive)	14.2 µM (inactive)	3.96 µM (inactive)	14 µM (inactive)	4.13 µM (inactive)	4.76 µM (inactive)	20 µM (inactive)	6.19 µM (inactive)	21.4 µM (inactive)	21 µM (inactive)	4.5 µM	–	5.87 µM (inactive)
FC(F)(F)C1(Br)C(c2ccccc2)=C1c1ccccc1	22.3 µM (inactive)	6.7 µM (inactive)	13 µM (inactive)	15.7 µM (inactive)	2.7 µM (inactive)	17.7 µM (inactive)	15.9 µM (inactive)	15 µM (inactive)	15.4 µM (inactive)	16.9 µM (inactive)	–	15.9 µM (inactive)	12.3 µM	19.3 µM (inactive)	4.43 µM (inactive)
O=CC[C@H]1CCc2ccccc2C12CCC(=O)CC2	87.7 µM (inactive)	39.3 µM (inactive)	> 100 µM (inactive)	> 100 µM (inactive)	30.5 µM (inactive)	51.4 µM (inactive)	> 100 µM (inactive)	> 100 µM (inactive)	92.9 µM (inactive)	> 100 µM (inactive)	> 100 µM (inactive)	> 100 µM (inactive)	80.4 µM	35.4 µM (inactive)	39.8 µM (inactive)
CC(=O)Nc1ccc(C2C(C(=O)Nc3ccccc3)=C(C)NC(C)=C2C(=O)Nc2ccccc2)cc1	> 100 µM (inactive)	> 91 µM (inactive)	> 100 µM (inactive)	> 100 µM (inactive)	> 100 µM (inactive)	> 100 µM (inactive)	> 100 µM (inactive)	> 100 µM (inactive)	> 100 µM (inactive)	> 100 µM (inactive)	> 100 µM (inactive)	> 100 µM (inactive)	> 64.1 µM	> 100 µM (inactive)	35.2 µM (inactive)
O=C1C2C(C(=O)N1c1ccccc1)C1c3ccccc3C2C2C(=O)N(c3ccccc3)C(=O)C21 (stereo not given)	6.27 µM (inactive)	3.12 µM (inactive)	3.48 µM (inactive)	20.7 µM (inactive)	20.7 µM (inactive)	28.6 µM (inactive)	3.89 µM (inactive)	7.08 µM (inactive)	4.44 µM (inactive)	3.67 µM (inactive)	6.71 µM (inactive)	2.54 µM (inactive)	3.43 µM	4.39 µM (inactive)	4.9 µM (inactive)
CC(C)(C)OC(=O)C1=C(O)C(C(=O)OC(C)(C)C)C23CCCCC12C(C(=O)OC(C)(C)C)C(O)=C3C(=O)OC(C)(C)C (stereo not given)	> 100 µM (inactive)	> 100 µM (inactive)	> 100 µM (inactive)	> 100 µM (inactive)	> 100 µM (inactive)	> 100 µM (inactive)	> 100 µM (inactive)	> 100 µM (inactive)	> 100 µM (inactive)	> 100 µM (inactive)	> 100 µM (inactive)	> 100 µM (inactive)	> 100 µM	> 100 µM (inactive)	> 100 µM (inactive)
O=C1C2=C(c3ccccc31)C(c1ccccc1Cl)NC(S)=N2 (stereo not given)	52.1 µM (inactive)	44.9 µM (inactive)	51.1 µM (inactive)	38.1 µM (inactive)	31.8 µM (inactive)	8.65 µM (inactive)	> 100 µM (inactive)	53 µM (inactive)	20.2 µM (inactive)	> 100 µM (inactive)	61.8 µM (inactive)	29.1 µM (inactive)	59.2 µM	37.4 µM (inactive)	48.2 µM (inactive)
CCOC(=O)C(=O)Nc1c(CC)cccc1C(C)C	> 100 µM (inactive)	> 100 µM (inactive)	> 100 µM (inactive)	> 100 µM (inactive)	–	> 100 µM (inactive)	> 100 µM (inactive)	> 100 µM (inactive)	–	> 100 µM (inactive)	> 100 µM (inactive)	> 100 µM (inactive)	> 100 µM	> 100 µM (inactive)	–
COC(=O)c1oc([N+](=O)[O-])c(-c2ccccc2)c1-c1ccccc1	> 100 µM (inactive)	> 100 µM (inactive)	> 100 µM (inactive)	> 100 µM (inactive)	33.6 µM (inactive)	> 100 µM (inactive)	> 100 µM (inactive)	> 100 µM (inactive)	48.3 µM (inactive)	> 100 µM (inactive)	> 100 µM (inactive)	> 100 µM (inactive)	–	> 100 µM (inactive)	67.9 µM (inactive)
N#Cc1c(N)c(C(=O)O)nn(-c2cccc(C(F)(F)F)c2)c1=O	> 100 µM (inactive)	> 100 µM (inactive)	> 100 µM (inactive)	> 100 µM (inactive)	> 100 µM (inactive)	–	> 100 µM (inactive)	> 100 µM (inactive)	53 µM (inactive)	–	41 µM (inactive)	> 100 µM (inactive)	95.1 µM	88.9 µM (inactive)	> 100 µM (inactive)
C=CCn1c2c(sc1=S)C(S)NC=N2 (stereo not given)	99.8 µM (inactive)	77.3 µM (inactive)	61.2 µM (inactive)	94.2 µM (inactive)	> 100 µM (inactive)	> 100 µM (inactive)	> 100 µM (inactive)	> 100 µM (inactive)	54.5 µM (inactive)	26.5 µM (inactive)	30.8 µM (inactive)	> 100 µM (inactive)	> 100 µM	38.5 µM (inactive)	95.9 µM (inactive)
C=C1C(=O)OC2/C=C(\C=O)CC/C=C(\C)C(O)C[C@@H]12 (stereo not given in full)	15.4 µM (inactive)	1.68 µM (inactive)	13.7 µM (inactive)	9.46 µM (inactive)	2.77 µM (inactive)	20.4 µM (inactive)	2.85 µM (inactive)	3.17 µM (inactive)	9.27 µM (inactive)	17.8 µM (inactive)	10.2 µM (inactive)	10.5 µM (inactive)	3.65 µM	1.95 µM (inactive)	2.57 µM (inactive)
